{
  "source": "patent US10806819B2",
  "about": "“Wound coverings comprising vitamin d and related methods” (Marshall University Research Corporation, priority 2015, dated 2020)",
  "key": {"cell growth": {"test_system": "cell growth", "conditions": "direct administration; cited from earlier work"}, "[1]": {"test_system": "LL-37 production in U937 cells", "assay": "LL-37 ELISA of U937 cell lysate", "type": "cell-based, human", "conditions": "for amount of LL-37 produced from U937 cells: 5.0×10^−6 M", "description": "(§1) This Example describes the production of LL-37 in cells treated with the PCL fibers produced in Example 1. Single cell suspensions of both HaCat cells (human keratinocyte cell line) and U937 cells (leukemic monocyte lymphoma cell line) were seeded in 6-cm culture dishes. 5.0×10^5, 2.0×10^5 and 1.0×10^5 cells were seeded in the culture dishes for 1-day, 3-day, and 5-day treatments, respectively. Cells were treated with different formulations as described above and harvested at each time point. The subconfluent HaCat cells and U937 cell suspensions were washed with PBS twice. Subsequently, 300 μl of the M-PER mammalian protein extraction reagent with 0.1% protease inhibitor cocktail was added to […]. They were agitated for 20 min and lysate was collected and transferred to a 1.5-ml microcentrifuge tube. The samples were centrifuged at 14000×g for 40 min at 4° C. to pelletize the cell debris and the supernatant was transferred to a new tube for analysis. Total protein concentration was tested by MicroBCA kit before ELISA test. Concentrations of LL-37 in cell lysate were determined by LL-37 ELISA assay kit based on the manufacturer's instructions."}, "HaCat cells": {"test_system": "HaCat cells", "assay": "HaCat cell proliferation / cytotoxicity (cell counting)", "type": "cell-based, human", "conditions": "5.0×10^−6 M free drug", "description": "(§2) This Example describes cell proliferation of cells treated with the PCL fibers produced in Example 1. Human keratinocyte cell line (HaCat) and monocyte cell line (U937) were cultured in D-MEM with 10% FCS and RPMI-1640 media with 10% FCS respectively. The cultures were maintained at 37° C. under 95% air and 5% CO2 until reaching 80% confluence. The subconfluent HaCat cells were dissociated with a 0.05% trypsin-EDTA and re-suspended in a fresh complete media. U937 cells were precipitated by 300 g centrifugation and then re-suspended in a fresh complete media. The single HaCat cell suspensions were created by gently pipetting up and down HaCat cell aggregates and then placed in 6-cm culture dishes and incubated for 1 day. At the beginning of experiments, 5.0×10^5, 2.0×10^5 and 1.0×10^5 cells were seeded in the culture dishes for 1-day, 3-day, and 5-day treatments, respectively. The media was then replaced by D-MEM containing 0.52% DMSO, D-MEM containing 5.0×10^−7 M 25(OH)D, D-MEM containing 5.0×10^−6 M 25(OH)D, D-MEM containing 1 mg/ml pristine PCL fibers, and D-MEM containing 1 mg/ml 25(OH)D loaded PCL fibers and incubated for 1, 3, and 5 days. Of note, 5.0×10^−6 M 25(OH)D was chosen as a control due to cytotoxicity in OKF6-TERT2 cells. […]\n(§3) The HaCat cells and U937 cells were seeded in 24-well plates. […] The cell density was calculated based on the cell counting (FIGS. 5A-5B). […]"}, "[2]": {"test_system": "cathelicidin (hCAP18) in U937 cells", "assay": "immunofluorescence assay of cathelicidin (hCAP18) expression in U937 cells", "type": "cell-based, human", "description": "(§4) This Example describes an immunofluorescence assay performed on cells treated with the PCL produced in Example 1. The cells were treated with different formulations as discussed above, the cells were rinsed with PBS twice and fixed with 4% paraformaldehyde for 30 min at 37° C. followed by incubation with TNBS (0.05% Triton-X100, 2% FBS in pH 7.2 PBS) for 30 minutes at room temperature prior to immunostaining. Goat anti-cathelicidin polyclonal antibody (1:200) was incubated to label intercellular cathelicidin at 4° C. overnight. Both the full length and cleaved C terminus of cathelicidin (hCAP18) were labeled. Mouse anti-goat IgG-FITC antibody (1:100) was incubated for 2 h after removal of primary antibody and washed with TNBS three times. Then, the secondary antibody was removed and washed by TNBS three times. Nuclei were counterstained with 10 μM DAPI in blue. Images were taken with a digital camera (Carl Zeiss). The exposure time for taking images for HaCat and U937 cells was fixed at 400 ms and 40 ms, respectively."}, "[3]": {"test_system": "LL-37 production in HaCat cells", "assay": "LL-37 ELISA of HaCat cell lysate", "type": "cell-based, human", "conditions": "5.0×10^−7 M free drug", "description": "as §1"}, "OKF6-TERT2": {"test_system": "OKF6-TERT2", "conditions": "recent study; cited from earlier work"}, "Pseudomonas aeruginosa": {"test_system": "Pseudomonas aeruginosa", "assay": "antibacterial activity of U937 lysis solutions (CFU count on agar plates)", "type": "cell-based", "conditions": "U937 treated with 5.0×10^−6 M for 5 days", "description": "FIG. 8 is a graph showing the quantification of Pseudomonas aeruginosa CFUs treated by U937 lysis solutions. U937 were incubated in the presence of 1 mg/ml pristine PCL fibers, 0.52% DMSO, 5.0×10^−7 M 25(OH)D, 5.0×10^−6 M 25(OH)D, and 1 mg/ml plasma treated and 25(OH)D loaded PCL fibers (containing 5.0×10^−7M 25(OH)D equivalent amount based on the calculations from release profiles in the first 3 days) for 1, 3 and 5 days. Bacteria were incubated with cell lysis solutions and CFUs were counted on agar plates. Each data point represents arithmetic mean±SD values from three samples. Statistical significance was evaluated by student's t-test (*p<0.05).\nThis Example describes the antibacterial activities in cells treated with the PCL fibers produced in Example 1. Briefly, bacteria were incubated with cell lysis solutions and CFUs were counted on agar plates."}, "[4]": {"test_system": "cathelicidin (hCAP18) in HaCat cells", "assay": "immunofluorescence assay of cathelicidin (hCAP18) expression in HaCat cells", "type": "cell-based, human", "description": "as §4"}, "U937 cells": {"test_system": "U937 cells", "assay": "U937 cell proliferation / cytotoxicity (cell counting)", "type": "cell-based, human", "conditions": "5.0×10^−6 M, 3 days and 5 days", "description": "as §2, §3"}, "Staphylococcus aureus": {"test_system": "Staphylococcus aureus", "conditions": "cited from earlier work"}},
  "data": [
    {"compound": "C=C1/C(=C\\C=C2/CCC[C@]3(C)[C@@H]([C@H](C)CCCC(C)(C)O)CC[C@@H]23)C[C@@H](O)C[C@@H]1O", "note": "[1,25-hydroxyvitamin D3]", "values": [
      {"measurement": "concentration generating cytotoxicity and inhibition of cell growth", "setting": "cell growth", "value": "10^−7 M"}
    ]},
    {"compound": "C=C1CC[C@H](O)C/C1=C/C=C1\\CCC[C@]2(C)[C@@H]([C@H](C)CCCC(C)(C)O)CC[C@@H]12", "note": "[25(OH)D, 25-hydroxyvitamin D3]", "values": [
      {"measurement": "amount of LL-37 produced from U937 cells", "setting": "[1]; 3 days", "value": "increased"},
      {"measurement": "amount of LL-37 produced from U937 cells", "setting": "[1]; 5 days", "value": "decreased sharply"},
      {"measurement": "production of hCAP 18 and LL-37 in U937 cells", "setting": "[1]; 5.0×10^−7 M free drug", "value": "failed to induce production of significant amount"},
      {"measurement": "cytotoxic effects on HaCat cells", "setting": "HaCat cells", "value": "marginal cytotoxic effects"},
      {"measurement": "change of fluorescence intensity (hCAP 18) of U937 cells", "setting": "[2]; 5.0×10^−6 M, day 1 to day 3", "value": "increased"},
      {"measurement": "change of fluorescence intensity (expression level of hCAP 18) of U937 cells", "setting": "[2]; 5.0×10^−6 M, day 3 to day 5", "value": "decreased"},
      {"measurement": "hCAP 18 expression in U937 cells", "setting": "[2]; 5.0×10^−6 M, one day", "value": "exhibited expression of hCAP 18"},
      {"measurement": "cathelicidin staining in U937 cells", "setting": "[2]; 5.0×10^−7 M, each time point", "value": "negative staining"},
      {"measurement": "production of hCAP 18 and LL-37 in HaCat cells", "setting": "[3]", "value": "failed to induce production of significant amount"},
      {"measurement": "concentration toxic to OKF6-TERT2", "setting": "OKF6-TERT2", "value": "≥ 5", "unit": "µM"},
      {"measurement": "concentration with little cytotoxicity in OKF6-TERT2", "setting": "OKF6-TERT2", "value": "lower than 5.0×10^−7 M"},
      {"measurement": "numbers of CFUs after incubation with U937 lysis solutions, versus other treatment groups", "setting": "Pseudomonas aeruginosa", "value": "significantly lower numbers of CFUs"},
      {"measurement": "hCAP 18 staining in HaCat cells", "setting": "[4]; 5.0×10^−6 M, 3 days", "value": "positive green fluorescent staining"},
      {"measurement": "hCAP 18 expression in HaCat cells", "setting": "[4]; 5.0×10^−7 M", "value": "did not demonstrate hCAP 18 expression"},
      {"measurement": "proliferation rate of U937 cells", "setting": "U937 cells", "value": "reduced dramatically"}
    ]},
    {"compound": "LL-37: human cathelicidin, small cationic antimicrobial peptide derived from hCAP-18", "values": [
      {"measurement": "EC50 against Staphylococcus aureus", "setting": "Staphylococcus aureus", "value": 1.27, "unit": "µg/mL"}
    ]}
  ]
}
